For the first test, the system named is HBV rcDNA in HepDE19 cells. The experiment in a line: HepDE19 assay with bDNA quantitation of HBV rcDNA. The format is cell-based, hepatitis B virus (HBV). The conditions noted are these: HepDE19 cells, inhibition of rcDNA formation, 7 day incubation, top concentration 25 μM; read-out: DE-19 bDNA EC50.
Regarding `O=C(Nc1ccc(F)c(Cl)c1)c1ccc(F)c2c1CCC21NC(=O)N(Cc2ccccn2)C1=O` (centres unmarked) [Compound 259, N-(3-chloro-4-fluoro-phenyl)-7′-fluoro-2,5-dioxo-1-(2-pyridylmethyl) spiro[imidazolidine-4,1′-indane]-4′-carboxamide], the EC50 was determined as 2900 nM.

With `O=C(Nc1ccc(F)c(Cl)c1)c1ccc(F)c2c1CCC21NC(=O)N(Cc2ccccn2)C1=O` (centres unmarked) [Compound 260, N-(3-chloro-4-fluoro-phenyl)-7-fluoro-2,5-dioxo-1-(2-pyridylmethyl)spiro [imidazolidine-4,1′-indane]-4′-carboxamide], the EC50 is 13000 nM.

On to `O=C(NC1CCc2c(C(=O)Nc3ccc(F)c(Cl)c3)ccnc21)OCc1ccccn1` (centres unmarked) [Compound 265, O-pyridin-2-ylmethyl, N-(4-((3-chloro-4-fluorophenyl)carbamoyl)-6,7-dihydro-5H-cyclopenta[b]pyridin-7-yl) carbamate], for which the EC50 is 540 nM.

As to `O=C(NC1CCc2c(C(=O)Nc3ccc(F)c(Cl)c3)ccnc21)OCc1ccccn1` (centres unmarked) [Compound 266, O-Pyridin-2-ylmethyl, N-(4-((3-chloro-4-fluorophenyl)carbamoyl)-6,7-dihydro-5H-cyclopenta[b]pyridin-7-yl) carbamate], the EC50 came to 430 nM.

Consider `O=C(NC1CCc2c(C(=O)Nc3ccc(F)c(Cl)c3)ccnc21)OCc1ccccn1` (centres unmarked) [Compound 267, O-Pyridin-2-ylmethyl, N-(4-((3-chloro-4-fluorophenyl)carbamoyl)-6,7-dihydro-5H-cyclopenta[b]pyridin-7-yl) carbamate], for which the EC50 came to 4900 nM.

With `O=C(NC1CCc2c(C(=O)Nc3ccc(F)c(Cl)c3)cncc21)OCc1ccccn1` (centres unmarked) [Compound 269, O-pyridin-2-ylmethyl, N-(4-((3-chloro-4-fluorophenyl)carbamoyl)-6,7-dihydro-5H-cyclopenta[c]pyridin-7-yl) carbamate], the EC50 was determined as 2300 nM.

For `O=C(NC1CCc2c(C(=O)Nc3ccc(F)c(Cl)c3)cncc21)OCc1ccccn1` (centres unmarked) [Compound 270, O-Pyridin-2-ylmethyl, N-(4-((3-chloro-4-fluorophenyl)carbamoyl)-6,7-dihydro-5H-cyclopenta[c]pyridin-7-yl) carbamate], the EC50 came to 1100 nM.

Take `COC(=O)NC1CC(C)(C)c2c(C(=O)Nc3ccc(F)c(Cl)c3)ccc(F)c21` (centres unmarked) [Compound 282, O-methyl, N-(4-((3-chloro-4-fluorophenyl)carbamoyl)-7-fluoro-3,3-dimethyl-2,3-dihydro-1H-inden-1-yl) carbamate]: the EC50 came to 15000 nM.

Staying with this test, now noted: Hepatitis B virus, HepDE19, 168 h, HepDE19 cells, inhibition of rcDNA formation, 7 day incubation, top concentration 25 μM; read-out: DE-19 bDNA EC50.
Regarding `CNC(=O)NC1CCc2c(C(=O)Nc3ccc(F)c(Cl)c3)ccnc21` (centres unmarked) [Compound 263, N-(3-Chloro-4-fluorophenyl)-7-(3-methylureido)-6,7-dihydro-5H-cyclopenta[b]pyridine-4-carboxamide], the EC50 was determined as 1900 nM.

`COC(=O)NC1CCc2c(C(=O)Nc3ccc(F)c(Cl)c3)ccnc21` (centres unmarked) [Compound 264, O-Methyl, N-(4-((3-chloro-4-fluorophenyl)carbamoyl)-6,7-dihydro-5H-cyclopenta[b]pyridin-7-yl) carbamate]: the EC50 stood at 540 nM.

In the case of `O=C(Nc1ccc(F)c(Cl)c1)c1ccc(F)c2c1CCS2(=O)=O` [Compound 272, N-(3-Chloro-4-fluorophenyl)-7-fluoro-2,3-dihydrobenzo[b]thiophene-4-carboxamide 1,1-dioxide], the EC50 was 220 nM.

Take `O=C(Nc1ccc(F)c(Cl)c1)c1cccc2c1CCS2(=O)=O` [Compound 273, N-(3-Chloro-4-fluorophenyl)-2,3-dihydrobenzo[b]thiophene-4-carboxamide 1,1-dioxide]: the EC50 came out at 210 nM.

Turning to `CC(C)(C)N1Cc2c(C(=O)Nc3ccc(F)c(Cl)c3)cccc2S1(=O)=O` [Compound 274, 2-(tert-Butyl)-N-(3-chloro-4-fluorophenyl)-2,3-dihydrobenzo[d]isothiazole-4-carboxamide 1,1-dioxide], the EC50 is 4100 nM.

Take `O=C(Nc1ccc(F)c(Cl)c1)c1cccc2c1CNS2(=O)=O` [Compound 275, N-(3-Chloro-4-fluorophenyl)-2,3-dihydrobenzo[d]isothiazole-4-carboxamide-1,1-dioxide]: the EC50 came out at 250 nM.

As to `O=C(Nc1ccc(F)c(Cl)c1)c1cccc2c1CN(CCO)S2(=O)=O` [Compound 276, N-(3-Chloro-4-fluorophenyl)-2-(2-hydroxyethyl)-2,3-dihydrobenzo[d]isothiazole-4-carboxamide 1,1-dioxide], the EC50 worked out at 1400 nM.

Turning to `CN1Cc2c(C(=O)Nc3ccc(F)c(Cl)c3)cccc2S1(=O)=O` [Compound 277, N-(3-Chloro-4-fluorophenyl)-2-methyl-2,3-dihydrobenzo[d]isothiazole-4-carboxamide 1,1-dioxide], the EC50 came out at 2200 nM.

For the compound `CC(C)N1Cc2c(C(=O)Nc3ccc(F)c(Cl)c3)cccc2S1(=O)=O` [Compound 278, N-(3-Chloro-4-fluorophenyl)-2-isopropyl-2,3-dihydrobenzo[d]isothiazole-4-carboxamide 1,1-dioxide], the EC50 is 1300 nM.

For `O=C(Nc1ccc(F)c(Cl)c1)c1cccc2c1CN(C1CC1)S2(=O)=O` [Compound 279, N-(3-chloro-4-fluorophenyl)-2-cyclopropyl-2,3-dihydrobenzo[d]isothiazole-4-carboxamide 1,1-dioxide], the EC50 worked out at 580 nM.

As for `CC(C)(C)[S@+]([O-])N[C@H]1CCc2c(C(=O)Nc3ccc(F)c(Cl)c3)ccc(F)c21` [Compound 280, (S)-1-(((S)-tert-Butylsulfinyl)amino)-N-(3-chloro-4-fluorophenyl)-7-fluoro-2,3-dihydro-1H-indene-4-carboxamide], the EC50 was 4600 nM.

As for `CC(C)(C)[S@@+]([O-])N[C@H]1CCc2c(C(=O)Nc3ccc(F)c(Cl)c3)ccc(F)c21` [Compound 281, (S)-1-(((R)-tert-Butylsulfinyl)amino)-N-(3-chloro-4-fluorophenyl)-7-fluoro-2,3-dihydro-1H-indene-4-carboxamide], the EC50 was 4400 nM.

Broadly, the EC50 is the concentration that produces a half-maximal response.

For the origin of these results see patent US11098010B2 (priority 2017, dated 2021).
